Data as given in patent publication US7429291B2, “Print ink containing a plurality of fluorescent coloring materials and inkjet recording method” (Canon Kabushiki Kaisha, priority 2003, dated 2008).

Columns and labels:
[1] = Light absorption spectrum of coloring material; format: physicochemical
Protocol: Next, the present invention will be described more concretely with reference to the examples and the reference examples. Here, measured values obtained with pure-water diluents of coloring materials were used for an absorption wavelength region, a maximum absorption wavelength region, and a fluorescence wavelength region. Using an absorption spectrometer, absorption wavelengths were measured.
A diluent was prepared such that the absorbance thereof was in the range of 0.5 to 0.7. A higher region from a base line as an absorption peak of the coloring material was defined as an absorption wavelength region, and the peak value was defined as a maximum absorption wavelength region. In addition, for fluorescence wavelengths, the measurement conditions were defined such that the fluorescence intensities would not exceed the measurement threshold value. Then, the measurement of fluorescence wavelengths was performed by using the diluent used in the measurement of absorbance and by fixing the excitation wavelengths of the first and second coloring materials at predetermined wavelengths. A region higher than the base line was defined as a fluorescence emission wavelength region.
The absorption wavelength regions of the first and second coloring materials were measured using the spectrophotometer U-3200, manufactured by Hitachi Ltd., after the sample was diluted with pure water 100,000 fold. The absorption wavelength region of the first coloring material ranged from 450 to 620 nm both inclusive, and the maximum absorption wavelength thereof was 565 nm. In addition, the absorption wavelength region of the second coloring material ranged from 300 to 450 nm both inclusive, and the maximum absorption wavelength thereof was 372 nm.

[2] = Fluorescence emission and excitation spectra of coloring material in evaporated ink (FP-750); format: physicochemical; settings: excitation at 254 nm
Source text: Hereinafter, the print ink of the present invention will be described with reference to the drawings. Unless noted as a recorded image or a printed matter, the results are with an evaporated ink in which water was removed by evaporation and coloring materials are dispersed in an organic solvent. The print ink according to each embodiment of the present invention contains a first fluorescent coloring material that emits fluorescence of a predetermined wavelength that is used for measurement or determination, with excitation at a predetermined excitation wavelength, a second fluorescent coloring material that emits fluorescence with excitation at the same excitation wavelength, and a liquid medium for solving or dispersing these materials therein.
Aspect 1 is characterized in that the fluorescence emission wavelength region of the second fluorescent coloring material covers at least the peak wavelength range of the excitation spectrum of the first fluorescent coloring material measured for emission at 600 nm (see FIG. 2) and/or the absorption wavelengths in the visible region of the first fluorescent coloring material (see the bottom of FIG. 6). […] Therefore, in FIG. 2, when the predetermined fluorescence wavelength of AR52 is 600 nm (the predetermined excitation wavelength: 254 nm), the peak wavelength range thereof is from 430 nm to 600 nm both inclusive. […]

[3] = absorption spectrum of the figures, normal ink

absorption band in visible region [1, 3] | absorption peak wavelength in visible region [1, 3] | fluorescence emission peak wavelength [2] | maximum absorption wavelength ([1]; Example 1, diluted with pure water 100,000 fold, spectrophotometer U-3200) | SMILES
≤ 525 nm | 490 nm | 530 nm |  | O=C([O-])c1ccccc1-c1c2ccc(=O)cc-2oc2cc([O-])ccc12.[Na+].[Na+] [AY73, C.I. Acid Yellow 73]
 | 565 nm | 600 nm | 565 nm | CCN(CC)c1ccc2c(-c3ccc(S(=O)(=O)[O-])cc3S(=O)(=O)[O-])c3ccc(=[N+](CC)CC)cc-3oc2c1.[Na+] [C.I. Acid Red 52]
